From US20230087118A1, “IMIDAZO[1,2-a][sequence] DERIVATIVES AND THEIR USE IN THE TREATMENT OF DISEASE” (priority 2019, published 2023)
Where a name gives a salt, the structure may show the parent alone. Read-outs that look alike come from different tables or passages of the source.

Molecular target: T1, IRAK4 (Homo sapiens, UniProt Q9NWZ3)
T1 sequence (Q9NWZ3 1-460): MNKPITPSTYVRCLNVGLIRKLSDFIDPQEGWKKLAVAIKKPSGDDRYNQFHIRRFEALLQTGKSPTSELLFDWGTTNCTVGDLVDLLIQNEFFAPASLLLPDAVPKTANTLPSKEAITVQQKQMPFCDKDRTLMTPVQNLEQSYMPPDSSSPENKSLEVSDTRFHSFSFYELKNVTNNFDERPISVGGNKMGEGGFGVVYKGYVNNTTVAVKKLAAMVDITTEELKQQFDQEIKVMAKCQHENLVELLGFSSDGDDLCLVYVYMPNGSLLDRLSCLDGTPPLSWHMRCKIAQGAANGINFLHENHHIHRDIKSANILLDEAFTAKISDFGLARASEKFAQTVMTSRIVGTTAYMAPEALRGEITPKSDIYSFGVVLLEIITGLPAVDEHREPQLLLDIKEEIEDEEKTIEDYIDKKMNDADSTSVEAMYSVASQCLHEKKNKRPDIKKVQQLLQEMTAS
Assay: biochemical

[1] = IRAK4 Biochemical Assay (1 mM ATP, 2 h) IC50 (μM), 1 mM ATP, 2 h, 100 pM IRAK4

IC50 [µM] | IC50 [1] [µM] | SMILES
0.0054 | – | CCOc1nc2nc(C34CCC(C)(CC3)OC4)cn2cc1C(=O)Nc1ccn(C)n1 [Example 423, 7-Ethoxy-N-(1-methyl-1H-pyrazol-3-yl)-2-(1-methyl-2-oxabicyclo[2.2.2]octan-4-yl)imidazo[1,2-a]pyrimidine-6-carboxamide]
– | 0.0056 | CC(C)Oc1cc2nc(C34CCC(C)(C3)OC4)cn2cc1C(=O)Nc1cc(F)n(C)n1 (stereo not shown) [Example 284, N-(5-fluoro-1-methyl-1H-pyrazol-3-yl)-7-isopropoxy-2-(1-methyl-2-oxabicyclo[2.2.1]heptan-4-yl)imidazo[1,2-a]pyridine-6-carboxamide trifluoroacetate]
0.0048 | – | CCCOc1nc(C(=O)Nc2cccc(C(F)(F)F)n2)cn2cc(C34COC(C)(C3)C4)nc12 [Example 343, 2-(1-Methyl-2-oxabicyclo[2.1.1]hexan-4-yl)-8-propoxy-N-(6-(trifluoromethyl)pyridin-2-yl)imidazo[1,2-a]pyrazine-6-carboxamide]
– | 0.0005 | CC(C)Oc1cc2nc(C34COC(C)(C3)C4)cn2cc1C(=O)Nc1cccc(N(C)C)n1 [Example 260, N-(6-(dimethylamino)pyridin-2-yl)-7-isopropoxy-2-(1-methyl-2-oxabicyclo[2.1.1]hexan-4-yl)imidazo[1,2-a]pyridine-6-carboxamide 2,2,2-trifluoroacetate]
0.0009 | – | CC(C)Oc1nc2nc(C34CCC(C)(CC3)CO4)cn2cc1C(=O)Nc1ccn(C)n1 [Example 566, 7-Isopropoxy-N-(1-methyl-1H-pyrazol-3-yl)-2-(4-methyl-2-oxabicyclo[2.2.2]octan-1-yl)imidazo[1,2-a]pyrimidine-6-carboxamide]
– | 0.0031 | COc1cccc(NC(=O)c2cn3cc(C4C5CCOCC54)nc3cc2OC)n1 (stereo not shown) [Example 25]
0.0065 | – | CCOc1cc(C(=O)Nc2cccc(C(F)F)n2)cn2cc([C@@H]3CCCOC3)nc12 (single isomer, unassigned) [Example 54]
0.0012 | – | CCOc1nc(C(=O)Nc2cccc(C(F)F)n2)cn2cc([C@]34CC[C@](C)(C3)OC4)nc12 (single isomer, unassigned) [Example 600]
0.0069 | – | CCOc1nc(C(=O)Nc2ccn(CC)n2)cn2cc(C34COC(C)(C3)C4)nc12 [Example 501, 8-Ethoxy-N-(1-ethyl-1H-pyrazol-3-yl)-2-(1-methyl-2-oxabicyclo[2.1.1]hexan-4-yl)imidazo[1,2-a]pyrazine-6-carboxamide]
0.0017 | – | CCOc1nc(C(=O)Nc2cccnc2OC(C)C)cn2cc(C34COC(C)(C3)C4)nc12 [Example 499, 8-Ethoxy-N-(2-isopropoxypyridin-3-yl)-2-(1-methyl-2-oxabicyclo[2.1.1]hexan-4-yl)imidazo[1,2-a]pyrazine-6-carboxamide]
0.0002 | – | CC(C)Oc1nc2nc(C34COC(C)(C3)C4)cn2cc1C(=O)Nc1cccc2scnc12 [Example 378, N-(benzo[d]thiazol-4-yl)-7-isopropoxy-2-(1-methyl-2-oxabicyclo[2.1.1]hexan-4-yl)imidazo[1,2-a]pyrimidine-6-carboxamide]
0.0019 | – | CCOc1nc(C(=O)Nc2cccc(C(F)F)n2)cn2cc([C@@]34CC[C@@](C)(C3)OC4)nc12 (single isomer, unassigned) [Example 601]
0.0002 | – | Cc1cnc2c(NC(=O)c3cn4cc([C@@]56CC[C@@](C)(C5)OC6)nc4nc3OC(C)C)cnn2c1 (single isomer, unassigned) [Example 616]
0.0022 | – | CCOc1nc(C(=O)Nc2cccc(C(F)F)n2)cn2cc(C3CCCOC3)nc12 (stereo not shown) [Example 223]
0.0075 | – | CCn1cccc(NC(=O)c2cn3cc(C4CC4)nc3cc2OC(C)C)c1=O [Example 480, 2-Cyclopropyl-N-(1-ethyl-2-oxo-1,2-dihydropyridin-3-yl)-7-isopropoxyimidazo[1,2-a]pyridine-6-carboxamide]
0.0002 | – | CC(C)Oc1cc2nc([C@]34CC[C@](C)(C3)OC4)cn2cc1C(=O)Nc1cnn2cccnc12 (single isomer, unassigned) [Example 614]
0.0004 | – | CC(C)Oc1cc2nc(C34CCC(C)(C3)OC4)cn2cc1C(=O)Nc1cccc(C(F)(F)F)c1F (stereo not shown) [Example 502, N-(2-fluoro-3-(trifluoromethyl)phenyl)-7-isopropoxy-2-(1-methyl-2-oxabicyclo[2.2.1]heptan-4-yl)imidazo[1,2-a]pyridine-6-carboxamide]
– | 0.0004 | COc1ncccc1NC(=O)c1cn2cc(C34CC(OC)(C3)C4)nc2cc1OC(C)C [Example 252, 7-Isopropoxy-2-(3-methoxybicyclo[1.1.1]pentan-1-yl)-N-(2-methoxypyridin-3-yl)imidazo[1,2-a]pyridine-6-carboxamide trifluoroacetate]
0.0013 | – | CCOc1nc2nc(C34COC(C)(C3)C4)cn2cc1C(=O)Nc1cccnc1OC [Example 242]

The remaining lines, values behind:

SMILES | IC50 [µM] | IC50 [1] [µM]
CCOc1cccc(NC(=O)c2cn3cc(C4CC4)nc3cc2OC(C)C)n1 [Example 481, 2-Cyclopropyl-N-(6-ethoxypyridin-2-yl)-7-isopropoxyimidazo[1,2-a]pyridine-6-carboxamide] | 0.0089 | –
CC(C)Oc1cc2nc(C34CCC(C)(C3)OC4)cn2cc1C(=O)Nc1cccc(F)c1F (stereo not shown) [Example 515, N-(2,3-difluorophenyl)-7-isopropoxy-2-(1-methyl-2-oxabicyclo[2.2.1]heptan-4-yl)imidazo[1,2-a]pyridine-6-carboxamide] | 0.0014 | –
COc1cc2nc(C3CCOCC3)cn2cc1C(=O)Nc1cccnc1OCC(F)F [Example 196] | 0.0091 | –
CC(C)Oc1nc(C(=O)Nc2cnn3cccnc23)cn2cc(C34CCC(C)(CC3)OC4)nc12 [Example 428, 8-Isopropoxy-2-(1-methyl-2-oxabicyclo[2.2.2]octan-4-yl)-N-(pyrazolo[1,5-a]pyrimidin-3-yl)imidazo[1,2-a]pyrazine-6-carboxamide] | 0.0016 | –
Cc1cnc2c(NC(=O)c3cn4cc(C56COC(C)(C5)C6)nc4c(F)c3OC3CCC3)cnn2c1 [Example 256, 7-Cyclobutoxy-8-fluoro-2-(1-methyl-2-oxabicyclo[2.1.1]hexan-4-yl)-N-(6-methylpyrazolo[1,5-a]pyrimidin-3-yl)imidazo[1,2-a]pyridine-6-carboxamide] | 0.0009 | –
CC(C)Oc1cc2nc(C34CCC(C)(C3)OC4)cn2cc1C(=O)Nc1cccc(C(F)(F)F)c1 (stereo not shown) [Example 510, 7-Isopropoxy-2-(1-methyl-2-oxabicyclo[2.2.1]heptan-4-yl)-N-(3-(trifluoromethyl)phenyl)imidazo[1,2-a]pyridine-6-carboxamide] | 0.001 | –
COc1cc2nc(C34CC(OC)(C3)C4)cn2cc1C(=O)Nc1ccccn1 [Example 2] | – | 0.0586
COc1nc(C(=O)Nc2ccn(C(F)F)n2)cn2cc(C3CCOCC3)nc12 [Example 87] | 0.0329 | –
CC12CC(c3cn4cc(C(=O)Nc5ccn(C6CCC6)n5)c(OC5CCC5)cc4n3)(CO1)C2 [Example 524, 7-Cyclobutoxy-N-(1-cyclobutyl-1H-pyrazol-3-yl)-2-(1-methyl-2-oxabicyclo[2.1.1]hexan-4-yl)imidazo[1,2-a]pyridine-6-carboxamide] | 0.0111 | –
COc1ncccc1NC(=O)c1cn2cc(C34COC(C)(C3)C4)nc2c(C)c1OC [Example 291, 7-Methoxy-N-(2-methoxypyridin-3-yl)-8-methyl-2-(1-methyl-2-oxabicyclo[2.1.1]hexan-4-yl)imidazo[1,2-a]pyridine-6-carboxamide] | 0.0125 | –
Cn1ccc(NC(=O)c2cn3cc(C45CCC(C)(CC4)OC5)nc3cc2OC2CCC2)n1 [Example 570, 7-Cyclobutoxy-N-(1-methyl-1H-pyrazol-3-yl)-2-(1-methyl-2-oxabicyclo[2.2.2]octan-4-yl)imidazo[1,2-a]pyridine-6-carboxamide] | 0.0004 | –
CC(C)Oc1cc2nc([C@]34CC[C@](C)(C3)OC4)cn2cc1C(=O)Nc1cc(F)n(C)n1 (single isomer, unassigned) [Example 602] | 0.0051 | –
CC(C)Oc1nc2nc([C@]34CC[C@](C)(C3)OC4)cn2cc1C(=O)Nc1cnn2cc(F)cnc12 (single isomer, unassigned) [Example 631] | 0.0004 | –
CC(C)Oc1cc2nc([C@@]34CC[C@@](C)(C3)OC4)cn2cc1C(=O)Nc1cccn(C)c1=O (single isomer, unassigned) [Example 620] | 0.0006 | –
CC12CC(c3cn4cc(C(=O)Nc5cccn(C(F)F)c5=O)c(OC5CCOCC5)cc4n3)(CO1)C2 [Example 454, N-(1-(difluoromethyl)-2-oxo-1,2-dihydropyridin-3-yl)-2-(1-methyl-2-oxabicyclo[2.1.1]hexan-4-yl)-7-((tetrahydro-2H-pyran-4-yl)oxy)imidazo[1,2-a]pyridine-6-carboxamide] | 0.0024 | –
COc1cccc(NC(=O)c2cn3cc(C4CCOCC4)nc3cc2OC(C)C)n1 [Example 93, 7-isopropoxy-N-(6-methoxypyridin-2-yl)-2-(tetrahydro-2H-pyran-4-yl)imidazo[1,2-a]pyridine-6-carboxamide] | 0.0002 | –
O=C(Nc1cccc(C(F)F)n1)c1cn2cc(C3CC3)nc2cc1OC1CC(C(F)F)C1 (stereo not shown) [Example 477, 2-Cyclopropyl-7-(3-(difluoromethyl)cyclobutoxy)-N-(6-(difluoromethyl)pyridin-2-yl)imidazo[1,2-a]pyridine-6-carboxamide] | – | 0.0011
CC12CC(c3cn4cc(C(=O)Nc5ccn(C(F)F)n5)c(OCC5CC5)nc4n3)(CO1)C2 [Example 639, 7-(Cyclopropylmethoxy)-N-(1-(difluoromethyl)-1H-pyrazol-3-yl)-2-(1-methyl-2-oxabicyclo[2.1.1]hexan-4-yl)imidazo[1,2-a]pyrimidine-6-carboxamide] | 0.0181 | –
